Test results reported in patent US9907800B2, “Kinase inhibitors and method of treating cancer” (University Health Network, priority 2010, dated 2018).
Structures can show the parent of a compound that is named as a salt.

How the values were obtained:
Format in all cases: biochemical
human PLK4 = human PLK4 (Homo sapiens (Human), UniProt O00444); experiment: PLK4 inhibition assay (indirect ELISA); settings: read-out: PLK4 IC50 Ranges
Aurora B = Aurora B (Homo sapiens (Human), UniProt Q96GD4); experiment: Aurora B inhibition assay (Z-Lyte); settings: read-out: Aurora B IC50 Ranges
Experimental: Aurora B inhibition was determined using the Z-Lyte assay kit from Invitrogen. […] The % inhibition values were determined according to the manufacturer's directions and IC50 values were obtained using a non-linear 4 point logistic curve fit (XLfit4, IDBS)

FLT3 = FLT3 (Homo sapiens (Human), UniProt P36888); experiment: FLT3 inhibition assay (Z-Lyte); settings: read-out: Flt3 IC50 Ranges
Sequence of FLT3 (P36888 27-993): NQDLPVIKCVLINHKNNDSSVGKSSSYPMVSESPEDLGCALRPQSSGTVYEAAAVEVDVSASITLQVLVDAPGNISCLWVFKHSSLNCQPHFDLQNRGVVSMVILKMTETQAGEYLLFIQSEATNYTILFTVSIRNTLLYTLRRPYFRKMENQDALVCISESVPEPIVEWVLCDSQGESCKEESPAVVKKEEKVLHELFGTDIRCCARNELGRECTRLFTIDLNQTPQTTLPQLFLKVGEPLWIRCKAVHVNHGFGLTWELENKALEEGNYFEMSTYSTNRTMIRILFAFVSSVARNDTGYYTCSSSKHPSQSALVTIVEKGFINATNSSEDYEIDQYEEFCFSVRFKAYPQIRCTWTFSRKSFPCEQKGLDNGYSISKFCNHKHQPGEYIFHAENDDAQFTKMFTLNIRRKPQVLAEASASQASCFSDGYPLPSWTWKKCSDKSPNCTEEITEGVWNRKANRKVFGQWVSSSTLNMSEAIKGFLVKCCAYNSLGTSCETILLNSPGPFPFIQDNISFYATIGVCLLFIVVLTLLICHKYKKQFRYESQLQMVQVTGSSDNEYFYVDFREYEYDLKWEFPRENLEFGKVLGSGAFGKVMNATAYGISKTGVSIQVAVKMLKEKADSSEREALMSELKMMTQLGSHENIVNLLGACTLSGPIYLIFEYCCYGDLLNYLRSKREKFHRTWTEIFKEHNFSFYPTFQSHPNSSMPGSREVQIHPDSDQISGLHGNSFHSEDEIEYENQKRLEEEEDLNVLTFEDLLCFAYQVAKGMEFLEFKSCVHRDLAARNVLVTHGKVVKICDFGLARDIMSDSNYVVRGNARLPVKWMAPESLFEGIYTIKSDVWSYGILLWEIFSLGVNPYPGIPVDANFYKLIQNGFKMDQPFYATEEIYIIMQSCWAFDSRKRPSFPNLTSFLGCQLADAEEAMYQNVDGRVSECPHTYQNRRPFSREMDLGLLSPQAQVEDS
Experimental: The enzymatic activity of FLT3 was determined using the Z-Lyte assay kit from Invitrogen (Invitrogen cat #PV3191). […] The % inhibition values were determined according to the manufacturer's directions and IC50 values were obtained using a non-linear 4 point logistic curve fit (XLfit4, IDBS).

Sequence of Aurora B (Q96GD4 whole entry): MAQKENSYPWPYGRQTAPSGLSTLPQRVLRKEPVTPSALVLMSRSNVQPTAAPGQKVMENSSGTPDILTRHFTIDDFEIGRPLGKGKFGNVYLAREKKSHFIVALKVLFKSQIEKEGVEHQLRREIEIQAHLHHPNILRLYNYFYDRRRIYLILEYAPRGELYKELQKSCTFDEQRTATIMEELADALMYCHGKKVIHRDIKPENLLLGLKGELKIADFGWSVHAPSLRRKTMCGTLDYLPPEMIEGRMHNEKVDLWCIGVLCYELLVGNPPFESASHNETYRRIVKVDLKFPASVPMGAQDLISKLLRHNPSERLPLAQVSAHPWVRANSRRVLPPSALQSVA
Sequence of human PLK4 (O00444 1-391): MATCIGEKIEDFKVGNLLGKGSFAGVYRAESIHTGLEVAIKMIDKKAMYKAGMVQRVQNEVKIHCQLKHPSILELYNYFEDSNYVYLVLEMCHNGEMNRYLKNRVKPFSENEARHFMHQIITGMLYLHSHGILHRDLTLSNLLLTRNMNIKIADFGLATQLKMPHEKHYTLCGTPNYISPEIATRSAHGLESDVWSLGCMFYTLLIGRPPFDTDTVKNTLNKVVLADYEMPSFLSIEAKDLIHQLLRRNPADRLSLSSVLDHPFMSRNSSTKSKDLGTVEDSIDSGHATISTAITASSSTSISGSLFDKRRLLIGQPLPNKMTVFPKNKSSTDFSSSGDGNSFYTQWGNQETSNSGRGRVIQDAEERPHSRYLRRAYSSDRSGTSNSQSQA

| SMILES | IC50 (human PLK4) | IC50 (Aurora B) | IC50 (FLT3) |
| --- | --- | --- | --- |
| COc1ccc2c(c1)[C@]1(C[C@H]1c1ccc3c(-c4cccc(C(=O)N5CCN(C)CC5)c4)n[nH]c3c1)C(=O)N2 (relative stereo) [Example A149, (1R*,2S*)-5′-methoxy-2-(3-(3-(4-methylpiperazine-1-carbonyl)phenyl)-1H-indazol-6-yl)spiro[cyclopropane-1,3′-indolin]-2′-one 2,2,2-trifluoroacetate] | < 100 nM | > 1000 nM | > 1000 nM |
| COc1ccc2c(c1)[C@@]1(C[C@@H]1c1ccc3c(-c4ccc(N5CCN(C)CC5)nc4)n[nH]c3c1)C(=O)N2 (stereo in doubt) [Example A16, (1S,2R)-5′-methoxy-2-(3-(6-(4-methylpiperazin-1-yl)pyridin-3-yl)-1H-indazol-6-yl)spiro[cyclopropane-1,3′-indolin]-2′-one] | < 100 nM | < 100 nM | < 100 nM |
| COc1ccc2c(c1)[C@]1(C[C@H]1c1ccc3c(-c4ccc5c(c4)CNCC5)n[nH]c3c1)C(=O)N2 [Example A71, (1R,2S)-5′-methoxy-2-(3-(1,2,3,4-tetrahydroisoquinolin-7-yl)-1H-indazol-6-yl)spiro[cyclopropane-1,3′-indolin]-2′-one 2,2,2-trifluoroacetate salt] | < 100 nM | < 100 nM | 100 to 1000 nM |
| CCN1CCN(c2ccc(-c3n[nH]c4cc([C@@H]5C[C@@]56C(=O)Nc5ccc(OC)cc56)ccc34)cc2)CC1 [Example A99, (1R,2S)-2-(3-(4-(4-ethylpiperazin-1-yl)phenyl)-1H-indazol-6-yl)-5′-methoxyspiro[cyclopropane-1,3′-indolin]-2′-one 2,2,2-trifluoroacetate] | < 100 nM | < 100 nM | < 100 nM |
| COc1ccc2c(c1)[C@]1(C[C@H]1c1ccc3c(/C=C/c4ccc(CN5CC[C@@H](F)C5)cc4)n[nH]c3c1)C(=O)N2 [Example A112, (1R,2S)-(E)-2-(3-(4-(((R)-3-fluoropyrrolidin-1-yl)methyl)styryl)-1H-indazol-6-yl)-5′-methoxyspiro[cyclopropane-1,3′-indolin]-2′-one 2,2,2-trifluoroacetate] | < 100 nM | < 100 nM | 100 to 1000 nM |
| COc1ccc2c(c1)[C@]1(C[C@H]1c1ccc3c(-c4ccc(N5C[C@@H](C)N[C@@H](C)C5)cc4)n[nH]c3c1)C(=O)N2 [Example A126, (1R,2S)-2-(3-(4-(cis-3,5-dimethylpiperazin-1-yl)phenyl)-1H-indazol-6-yl)-5′-methoxyspiro[cyclopropane-1,3′-indolin]-2′-one 2,2,2-trifluoroacetate] | < 100 nM | < 100 nM | 100 to 1000 nM |
| COc1ccc2c(c1)[C@]1(C[C@H]1c1ccc3c(-c4ccc(N(C)CCN(C)C)cc4)n[nH]c3c1)C(=O)N2 [Example A129, (1R,2S)-2-(3-(4-((2-(dimethylamino)ethyl)(methyl)amino)phenyl)-1H-indazol-6-yl)-5′-methoxyspiro[cyclopropane-1,3′-indolin]-2′-one 2,2,2-trifluoroacetate] | < 100 nM | < 100 nM | 100 to 1000 nM |
| COCCN1C(=O)[C@@]2(C[C@H]2c2ccc3c(/C=C/c4ccc(CN(C)C)cc4)n[nH]c3c2)c2ccccc21 [Example A131, (1R,2S)-(E)-2-(3-(4-((dimethylamino)methyl)styryl)-1H-indazol-6-yl)-1′-(2-methoxyethyl)spiro[cyclopropane-1,3′-indolin]-2′-one 2,2,2-trifluoroacetate] | < 100 nM | < 100 nM | > 1000 nM |
| COc1ccc2c(c1)[C@]1(C[C@H]1c1ccc3c(/C=C/c4ccc(N5CCN(C)CC5)cc4)n[nH]c3c1)C(=O)N2 [Example A175, (1R,2S)-(E)-5′-methoxy-2-(3-(4-(4-methylpiperazin-1-yl)styryl)-1H-indazol-6-yl)spiro[cyclopropane-1,3′-indolin]-2′-one 2,2,2-trifluoroacetate] | < 100 nM | < 100 nM | < 100 nM |
| COc1ccc2c(c1)[C@]1(C[C@H]1c1ccc3c(-c4ccc(N5CCN(C6CCCC6)CC5)cc4)n[nH]c3c1)C(=O)N2 [Example A192, (1R,2S)-2-(3-(4-(4-cyclopentylpiperazin-1-yl)phenyl)-1H-indazol-6-yl)-5′-methoxyspiro[cyclopropane-1,3′-indolin]-2′-one 2,2,2-trifluoroacetate] | < 100 nM | < 100 nM | 100 to 1000 nM |
